Values of other authors in patent US20220361717A1, “Anti-Pathogenic Hand Sanitization Station” (priority 2021, published 2022).
“Also recorded” adds a separate entry of the source.

Assays:
[1] = test system: Bacteria: E. coli; S. aureus; S. typhimurium
[2] = test system: Bacteria: Gram-postive bacteria; settings: homopolymer versus model compound p-ethylbenzyl tetramethylene sulforium tetrafluoroborate
[3] = test system: Bacteria: S. Aureus; P. aeruginosa; E. coli
Bacteria: E-coli = settings: value = inhibited species
[4] = test system: Bacteria: Gram-positive; Gram-negative; settings: copolymerization of antimicrobial monomer and styrene; effect on the potency of the monomer
[5] = test system: Bacteria: Pseudomonas aeruginosa; Staphylococccus
[6] = test system: Bacteria: S. aureus; E. coli; settings: value = inhibited species

With `C=CC(=O)Oc1ccc(Cl)c2cccnc12` as the compound, how does the “Comparison of Polymers with Monomer” value ([1]; homopolymer and copolymers with acrylamide versus the monomer) read?
The value was “less effective than”.

And the “Inhibited Microbial Species” value ([1]; value = inhibited species)?
The value was “S. aureus;; also recorded: S. typhimurium”.

With `C=Cc1ccc(C[S+]2CCCC2)cc1` as the compound, how does the “Comparison of Polymers with Monomer” value [2] read?
The value was “is more effective”.

What does the source list for `C=C(C)C(=O)OCC(O)CSc1nnc(C)s1` (stereo not shown)?
Comparison of Polymers with Monomer ([3]; homopolymer effectiveness versus the monomer): more; Inhibited Microbial Species ([3]; value = inhibited species): Bacteria: S. Aureus;; also recorded: P. aeruginosa;; also recorded: E. coli;

For `C=CC(=O)N1C(C)(C)NC(=O)C1(C)C`, which “Inhibited Microbial Species” value (Bacteria: E-coli) is on record?
Its value is “Bacteria: E-coli”.

For `C=CC(=O)Nc1cccc(C)c1`, which “Comparison of Polymers with Monomer” value [4] is on record?
Its value is “styrene decreases”.

What does the source list for `C=CC(=O)Oc1cc(Cl)ccc1Oc1ccc(Cl)cc1Cl`?
Comparison of Polymers with Monomer ([5]; homopolymer and copolymers with methyl methacrylate, styrene versus the monomer): less effective; Inhibited Microbial Species ([5]; value = inhibited species, 'Pseudomonas aeruginosa' wrapped over cells): Staphylococccus

With `C=C(C)C(=O)OCCOC(=O)C(C)CC1(CCCCCCCC)CCC(CCCCCCCC)(CC(C)C(=O)OCCOC(=O)C(=C)C)CC1` (stereo not shown) as the compound, how does the “Inhibited Microbial Species” value [6] read?
Its value is “Bacteria: S. aureus;; also recorded: E. coli”.
